For the experiment, the target named is p45MEK (GST-MEK) (Homo sapiens, UniProt Q02750). In words: Cascade assay for inhibitors of the MAP kinase pathway (in vitro). It is filed as biochemical. The procedure:
Incorporation of ^32P into myelin basic protein (MBP) was assayed in the presence of a glutathione S-transferase fusion protein containing p44MAP kinase (GST-MAPK) and a glutathione S-transferase fusion protein containing p45MEK (GST-MEK). The assay solution contained 20 mM HEPES, pH 7.4, 10 mM MgCl2, 1 mM MnCl2, 1 mM EGTA, 50 μM [γ-^32P]ATP, 10 μg GST-MEK, 0.5 μg GST-MAPK and 40 μg MBP in a final volume of 100 μL. […] Compounds were assessed at 10 μM for ability to inhibit incorporation of ^32P.
To ascertain whether compounds were inhibiting GST-MEK or GST MAPK, two additional protocols were employed. In the first protocol, compounds were added to tubes containing GST-MEK, followed by addition of GST-MAPK, MBP and [γ-^32P]ATP. In the second protocol, compounds were added to tubes containing both GST-MEK and GST-MAPK, followed by MBP and [γ-^32P]ATP.

Structures can show the parent of a compound that is named as a salt.

Broadly, the IC50 is the concentration that inhibits the measured activity by half. High values mean weaker potency, low ones greater potency. In turn, `CC(C#Cc1ccccc1)=CCONC(=O)c1ccc(F)c(F)c1Nc1ccc(Br)cc1C` [Example 39, 2-(4-Bromo-2-methyl-phenylamino)-3,4-difluoro-N-(3-methyl-5-phenyl-pent-2-en-4-ynyloxy)-benzamide] returned a half-inhibitory concentration (IC50) of 147 nM.

`Cc1cc(I)ccc1Nc1c(C(=O)NOCc2ccoc2)ccc(F)c1F` [Example 21, 3,4-Difluoro-N-(furan-3-ylmethoxy)-2-(4-iodo-2-methyl-phenylamino)-benzamide] registered an IC50 of 14 nM.

For `CCONC(=O)c1ccc(F)c(F)c1Nc1ccc(Br)cc1C` [Example 41, 2-(4-Bromo-2-methyl-phenylamino)-N-ethoxy-3,4-difluoro-benzamide], inhibition was half-maximal at 236 nM (IC50).

In turn, `Cc1cc(I)ccc1Nc1c(C(=O)NOCc2ccoc2)cc(Br)c(F)c1F` [Example 23, 5-Bromo-3,4-difluoro-N-(furan-3-ylmethoxy)-2-(4-iodo-2-methyl-phenylamino)-benzamide] yielded an IC50 of 16 nM.

Compound `CCONC(=O)c1cc(Br)c(F)c(F)c1Nc1ccc(I)cc1C` [Example 17, 5-Bromo-N-ethoxy-3,4-difluoro-2-(4-iodo-2-methyl-phenylamino)-benzamide] registered an IC50 of 14 nM.

In turn, `Cc1cc(I)ccc1Nc1cc(F)ccc1C(=O)N(C)O` [Example 80, 4-Fluoro-N-hydroxy-2-(4-iodo-2-methyl-phenylamino)-N-methyl-benzamide] yielded an IC50 of 80 nM.

In turn, `Cc1cc(Br)ccc1Nc1c(C(=O)NOCc2ccoc2)ccc(F)c1F` [Example 22, 2-(4-Bromo-2-methyl-phenylamino)-3,4-difluoro-N-(furan-3-ylmethoxy)-benzamide] gave an IC50 of 137 nM.

Compound `O=C(NOC1CCCCO1)c1ccc(F)c(F)c1Nc1ccc(I)cc1Cl` (stereo not shown) [Example 90, 3,4-Difluoro-2-(2-chloro-4-iodo-phenylamino)-N-(tetrahydro-pyran-2-yloxy)-benzamide] displayed an IC50 of 55 nM.

Compound `Cc1cc(I)ccc1Nc1cc(F)ccc1C(=O)N(O)C(C)C` [Example 78, 4-Fluoro-N-hydroxy-2-(4-iodo-2-methyl-phenylamino)-N-isopropyl-benzamide] returned an IC50 of 80 nM.

In turn, `Cc1cc(I)ccc1Nc1c(C(=O)NOC(C)C)cc(Br)c(F)c1F` [Example 49, 5-Bromo-3,4-difluoro-2-(4-iodo-2-methyl-phenylamino)-N-isopropoxy-benzamide] gave an IC50 of 85 nM.

`C#CCONC(=O)c1ccc(F)c(F)c1Nc1ccc(I)cc1C` [Example 71, 3,4-Difluoro-2-(4-iodo-2-methyl-phenylamino)-N-(prop-2-ynyloxy)-benzamide] had an IC50 of 15 nM.

Consider `O=C(NOC1CCCCO1)c1ccc(F)cc1Nc1ccc(I)cc1Cl` (stereo not shown) [Example 88, 2-(2-Chloro-4-iodo-phenylamino)-4-fluoro-N-(tetrahydro-pyran-2-yloxy)-benzamide], for which 69 nM corresponded to half-maximal inhibition (IC50).

Turning to `C#CCONC(=O)c1ccc(F)cc1Nc1ccc(I)cc1C` [Example 25, 4-Fluoro-2-(4-iodo-2-methyl-phenylamino)-N-(prop-2-ynyloxy)-benzamide], the IC50 was 102 nM.

`C#CC(C)ONC(=O)c1ccc(F)c(F)c1Nc1ccc(I)cc1C` (stereo not shown) [Example 27, 3,4-Difluoro-2-(4-iodo-2-methyl-phenylamino)-N-(1-methyl-prop-2-ynyloxy)-benzamide] gave an IC50 of 26 nM.

Compound `Cc1cc(I)ccc1Nc1c(C(=O)NOC2CCCCO2)ccc(F)c1F` (stereo not shown) [Example 83, 3,4-Difluoro-2-(4-iodo-2-methyl-phenylamino)-N-(tetrahydro-pyran-2-yloxy)-benzamide] came in with a 50% inhibitory concentration (IC50) of 31 nM.

`Cc1cc(I)ccc1Nc1c(C(=O)NOCc2cccs2)ccc(F)c1F` [Example 63, 3,4-Difluoro-2-(4-iodo-2-methyl-phenylamino)-N-(thiophen-2-ylmethoxy)-benzamide] returned an IC50 of 19 nM.

“4-Fluoro-2-(4-iodo-2-methyl-phenylamino)-N-phenylmethoxy-benzamide [Example 77]” yielded an IC50 of 280 nM.

Compound `O=C(NOC1CCCCO1)c1cc(Br)c(F)c(F)c1Nc1ccc(I)cc1Cl` (stereo not shown) [Example 94, 5-Bromo-2-(2-chloro-4-iodo-phenylamino)-3,4-difluoro-N-(tetrahydro-pyran-2-yloxy)-benzamide] displayed an IC50 of 38 nM.

As for `CCN(CC)CCONC(=O)c1cc(Br)c(F)c(F)c1Nc1ccc(I)cc1C` [Example 98, 5-Bromo-N-(2-diethylamino-ethoxy)-3,4-difluoro-(4-iodo-2-methyl-phenylamino)-benzamide], 25 nM corresponded to half-maximal inhibition (IC50).

For `O=C(NO)c1ccc(F)cc1Nc1ccc(I)cc1Cl` [Example 87, 2-(2-Chloro-4-iodo-phenylamino)-4-fluoro-N-hydroxy-benzamide (HCl salt)], the IC50 was under 1 nM.

In the case of `Cc1cc(I)ccc1Nc1c(C(=O)NOCC2CC2)ccc(F)c1F` [Example 56, N-Cyclopropylmethoxy-3,4-difluoro-2-(4-iodo-2-methyl-phenylamino)-benzamide], the half-inhibitory concentration (IC50) was 14 nM.

The compound `Cc1cc(I)ccc1Nc1c(C(=O)NOCCN2CCCCC2)cc(Br)c(F)c1F` [Example 85, 3,4-Difluoro-5-bromo-2-(4-iodo-2-methyl-phenylamino)-N-(2-piperidin-1-yl-ethoxy)-benzamide] registered an IC50 of 24 nM.

`CC=CCONC(=O)c1cc(Br)c(F)c(F)c1Nc1ccc(I)cc1C` [Example 24, 5-Bromo-N-(but-2-enyloxy)-3,4-difluoro-2-(4-iodo-2-methyl-phenylamino)-benzamide] came in with an IC50 of 21 nM.

The compound `CONC(=O)c1cc(Cl)ccc1Nc1ccc(I)cc1C` [Example 7, 5-Chloro-2-(4-iodo-2-methyl-phenylamino)-N-methoxybenzamide] showed a half-inhibitory concentration (IC50) of 221 nM.

With `Cc1cc(I)ccc1Nc1c(C(=O)NOC(C)C)ccc(F)c1F` [Example 47, 3,4-Difluoro-2-(4-iodo-2-methyl-phenylamino)-N-isopropoxy-benzamide], the IC50 amounted to 87 nM.

In turn, `Cc1cc(I)ccc1Nc1c(C(=O)NOC2CCCC2)ccc(F)c1F` [Example 53, N-Cyclopentyloxy-3,4-difluoro-2-(4-iodo-2-methyl-phenylamino)-benzamide] displayed an IC50 of 140 nM.

As for `CCONC(=O)c1ccc(F)c(F)c1Nc1ccc(I)cc1C` [Example 40, N-Ethoxy-3,4-difluoro-2-(4-iodo-2-methyl-phenylamino)-benzamide], the IC50 turned out to be 28 nM.

Take `Cc1cc(I)ccc1Nc1c(C(=O)NOCCN2CCOCC2)cc(Br)c(F)c1F` [Example 97, 5-Bromo-3,4-difluoro-2-(4-iodo-2-methyl-phenylamino)-N-(2-morpholin-4-yl-ethoxy)-benzamide]: the IC50 amounted to 15 nM.

On to `CCCONC(=O)c1ccc(F)c(F)c1Nc1ccc(Br)cc1C` [Example 44, 2-(4-Bromo-2-methyl-phenylamino)-3,4-difluoro-N-propoxy-benzamide], for which the midpoint of inhibition, the IC50, lay at 475 nM.

In the case of `Cc1cc(I)ccc1Nc1cc(F)ccc1C(=O)NOCCOc1ccccc1` [Example 59, 4-Fluoro-2-(4-iodo-2-methyl-phenylamino)-N-(2-phenoxy-ethoxy)-benzamide], the IC50 was 259 nM.

As for `Cc1cc(I)ccc1Nc1c(C(=O)NOC2CCCCO2)cc(Br)c(F)c1F` (stereo not shown) [Example 86, 5-Bromo-3,4-difluoro-2-(4-iodo-2-methyl-phenylamino)-N-(tetrahydro-pyran-2-yloxy)-benzamide], the IC50 was 47 nM.

`CC=CCONC(=O)c1ccc(F)c(F)c1Nc1ccc(I)cc1C` [Example 69, N-(But-2-enyloxy)-3,4-difluoro-2-(4-iodo-2-methyl-phenylamino)-benzamide] yielded a half-inhibitory concentration (IC50) of 16 nM.

Turning to `Cc1cc(I)ccc1Nc1ccc(Cl)cc1C(=O)N(C)O` [Example 5, 5-Chloro-N-hydroxy-2-(4-iodo-2-methyl-phenylamino)-N-methyl-benzamide], the IC50 worked out at 566 nM.

`CC=CCONC(=O)c1ccc(F)c(F)c1Nc1ccc(Br)cc1C` [Example 70, 2-(4-Bromo-2-methyl-phenylamino)-N-(but-2-enyloxy)-3,4-difluoro-benzamide]: the IC50 was 224 nM.

`Cc1cc(I)ccc1Nc1c(C(=O)NOCC#Cc2ccccc2F)ccc(F)c1F` [Example 36, 3,4-Difluoro-N-[3-(2-fluoro-phenyl)-prop-2-ynyloxy]-2-(4-iodo-2-methyl-phenylamino)-benzamide]: the IC50 stood at 56 nM.

`Cc1cc(Br)ccc1Nc1c(C(=O)NOCC2CC2)ccc(F)c1F` [Example 57, 2-(4-Bromo-2-methyl-phenylamino)-N-cyclopropylmethoxy-3,4-difluoro-benzamide] registered an IC50 of 181 nM.

Consider `Cc1cc(I)ccc1Nc1ccc(Cl)cc1C(=O)NOC1CCCCO1` (stereo not shown) [Example 6, 5-Chloro-2-(4-iodo-2-methyl-phenylamino)-N-(terahydropyran-2-yloxy)benzamide], for which the concentration for half-maximal inhibition (IC50) worked out at 345 nM.

`Cc1cc(I)ccc1Nc1c(C(=O)NOCC#Cc2cccc(F)c2)ccc(F)c1F` [Example 34, 3,4-Difluoro-N-[3-(3-fluoro-phenyl)-prop-2-ynyloxy]-2-(4-iodo-2-methyl-phenylamino)-benzamide] yielded an IC50 of 113 nM.

In turn, `Cc1cc(I)ccc1Nc1cc(F)c([N+](=O)[O-])cc1C(=O)NO` [Example 81, 4-Fluoro-N-hydroxy-2-(4-iodo-2-methyl-phenylamino)-5-nitro-benzamide] gave a half-inhibitory concentration (IC50) of 17 nM.

`Cc1cc(I)ccc1Nc1c(C(=O)NOCC2CC2)cc(F)c(F)c1F` [Example 79, N-Cyclopropylmethoxy-3,4,5-trifluoro-2-(4-iodo-2-methyl-phenylamino)-benzamide] gave an IC50 of 8 nM.
